The text below walks through data of US20220380319A1 (Bial - R&D Investments, S.A., priority 2019, published 2022).

The target of one data set is T1, acid ceramidase (Homo sapiens, UniProt Q13510).
T1 construct: Cell lysates overexpressing acid ceramidase were used as the enzyme source; expressed in transfected cells
T1 sequence (Q13510 22-395): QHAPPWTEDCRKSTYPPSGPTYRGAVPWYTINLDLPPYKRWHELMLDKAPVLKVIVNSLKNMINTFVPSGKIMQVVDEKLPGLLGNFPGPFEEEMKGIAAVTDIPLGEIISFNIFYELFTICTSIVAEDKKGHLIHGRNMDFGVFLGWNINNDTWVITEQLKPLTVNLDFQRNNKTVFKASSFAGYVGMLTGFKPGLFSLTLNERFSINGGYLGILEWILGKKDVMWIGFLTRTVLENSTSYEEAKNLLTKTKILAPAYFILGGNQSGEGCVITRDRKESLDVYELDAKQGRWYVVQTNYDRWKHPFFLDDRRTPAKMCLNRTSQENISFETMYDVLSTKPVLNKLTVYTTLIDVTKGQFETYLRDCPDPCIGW
The experiment in a line: Acid ceramidase inhibition, biochemical fluorescent assay with cell lysates overexpressing acid ceramidase, substrate Rbm14-12. As to conditions: substrate Rbm14-12 6.3 μM. The method, boiled down:
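IC50 derived by four-parameter fitting of fluorescence (ex360 nm, em446 nm) produced after 1 hr in methanol/NaIO4/glycine stop buffer, pH 10.6. Reaction: 6.3 μM Rbm14-12, 1 hr RT, following 1 hr RT compound preincubation with 10 μg overexpressing-cell lysate protein in pH 4.5 NaAC/NaCl buffer.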

Data set [1] in a line: Compound solubility in water.
The mark [2] stands for this setting: pH 4.5, 1 hr preincubation at RT.

The structures appear in SMILES notation. ≈ marks a conversion by molar mass, not a printed value. Bounds are passed on as bounds.

`CC(C)CNC(=O)n1cnc2ccc(-c3cncs3)cc21` [Example 126b, N-iso-butyl-6-(thiazol-5-yl)-1H-benzo[d]imidazole-1-carboxamide]: the IC50 against acid ceramidase (setting [2]) fell in the range of 200 to 1000 nM. In addition, the solubility in data set [1] turned out to be 14 µg/mL (≈ 46.6 µM).
On the same counts, the results for `CCCCNC(=O)n1c(OC)nc2cc(-c3cncnc3)ccc21` [Example 82b, N-Butyl-2-methoxy-5-(pyrimidin-5-yl)-1H-benzo[d]imidazole-1-carboxamide] are 200 to 1000 nM and 24.5 µg/mL (≈ 75.3 µM).
On the same counts, the results for `O=C(NCCOc1ccccc1)n1cnc2cc(C(F)(F)F)ccc21` [Example 46a, N-(2-Phenoxyethyl)-5-(trifluoromethyl)-1H-benzo[d]imidazole-1-carboxamide] are < 200 nM and 0.4 µg/mL (≈ 1.15 µM).
On the same counts, the results for `COc1cc(N2CCCCC2)c2ncn(C(=O)NCCCCC3CC3)c2c1` [Example 132, N-(4-Cyclopropylbutyl)-6-methoxy-4-(piperidin-1-yl)-1H-benzo[d]imidazole-1-carboxamide] are < 200 nM and 0.2 µg/mL (≈ 0.54 µM).
On acid ceramidase (pH 4.5), `COc1nc2ccc(N3CCOCC3)cc2n1C(=O)NCCCc1ccco1` [Example 228a, N-(3-(Furan-2-yl)propyl)-2-methoxy-6-morpholino-1H-benzo[d]imidazole-1-carboxamide] showed an IC50 of 200 to 1000 nM. In data set [1], this compound had a solubility of 29 µg/mL (≈ 75.4 µM).
`CC(C)CCNC(=O)n1cnc2c(N3CCN(C4CC4)CC3)cccc21` [Example 147, 4-(4-Cyclopropylpiperazin-1-yl)-N-iso-pentyl-1H-benzo[d]imidazole-1-carboxamide] registered an IC50 against acid ceramidase (setting [2]) of 200 to 1000 nM. In data set [1], this compound gave a solubility of 14 µg/mL (≈ 39.4 µM).
On the same counts, the results for `O=C(NCCOc1ccccc1)n1cnc2c(F)cccc21` [Example 73, 4-Fluoro-N-(2-phenoxyethyl)-1H-benzo[d]imidazole-1-carboxamide] are < 200 nM and 2.7 µg/mL (≈ 9.02 µM).
`COc1nc2cc(N3CCOCC3)ccc2n1C(=O)NCCCc1ccco1` [Example 228b, N-(3-(furan-2-yl)propyl)-2-methoxy-5-morpholino-1H-benzo[d]imidazole-1-carboxamide]: the IC50 at acid ceramidase (pH 4.5) fell in the range of 200 to 1000 nM. The compound also came in with a solubility in data set [1] of 33 µg/mL (≈ 85.8 µM).
On the same counts, the results for `CC(C)C#CCNC(=O)n1cnc2c(N3CCN4CCCC4C3)cccc21` (stereo not shown) [Example 302, 4-(Hexahydropyrrolo[1,2-a]pyrazin-2(1H)-yl)-N-(4-methylpent-2-yn-1-yl)-1H-benzo[d]imidazole-1-carboxamide] are < 200 nM and 22 µg/mL (≈ 60.2 µM).
Turning to `O=C(NCCc1ccccc1)n1cnc2cc(N3CCOCC3)ccc21` [Example 14a, 5-Morpholino-N-phenethyl-1H-benzo[d]imidazole-1-carboxamide], the IC50 against acid ceramidase (setting [2]) is < 200 nM. The same compound came in with a solubility in data set [1] of 16.1 µg/mL (≈ 45.9 µM).
On the same counts, the results for `CCCCNC(=O)n1cnc2cc(OC(F)(F)F)ccc21` [Example 70b, N-butyl-5-(trifluoromethoxy)-1H-benzo[d]imidazole-1-carboxamide] are < 200 nM and 9.6 µg/mL (≈ 31.9 µM).
For the compound `CC(C)CNC(=O)n1cnc2cc(-c3cncs3)ccc21` [Example 126a, N-iso-Butyl-5-(thiazol-5-yl)-1H-benzo[d]imidazole-1-carboxamide], the IC50 at acid ceramidase (setting [2]) was < 200 nM. The compound further had a solubility in data set [1] of 6 µg/mL (≈ 20 µM).
At acid ceramidase (pH 4.5), `C[C@@H]1CN(c2cccc3c2ncn3C(=O)NCCCC(F)(F)F)C[C@H](C)O1` [Example 226, 4-((2R,6S)-2,6-dimethylmorpholino)-N-(4,4,4-trifluorobutyl)-1H-benzo[d]imidazole-1-carboxamide] returned an IC50 of 200 to 1000 nM. The same compound came in with a solubility in data set [1] of 5 µg/mL (≈ 13 µM).
For the compound `O=C(NCCc1ccccc1)n1cnc2cc(Cl)c(-c3ccccn3)cc21` [Example 7b, 5-chloro-N-phenethyl-6-(pyridin-2-yl)-1H-benzo[d]imidazole-1-carboxamide], at acid ceramidase (setting [2]), the IC50 was < 200 nM. Further, the solubility in data set [1] was found to be 0.1 µg/mL (≈ 0.265 µM).
As to `COc1nc2ccc(N3CCOCC3)cc2n1C(=O)NCCCc1nccs1` [Example 196, 2-Methoxy-6-morpholino-N-(3-(thiazol-2-yl)propyl)-1H-benzo[d]imidazole-1-carboxamide], on acid ceramidase (pH 4.5), the IC50 was in the range of 200 to 1000 nM. Further, the concentration in solution in data set [1] (solubility) was 35 µg/mL (≈ 87.2 µM).
In the case of `CN1CCN(c2cccc3c2ncn3C(=O)NCC#Cc2cccc(F)c2)CC1` [Example 337, N-(3-(3-Fluorophenyl)prop-2-yn-1-yl)-4-(4-methylpiperazin-1-yl)-1H-benzo[d]imidazole-1-carboxamide], the IC50 at acid ceramidase (setting [2]) is < 200 nM. In data set [1], the concentration in solution (solubility) came to 15 µg/mL (≈ 38.3 µM).
As to `COc1nc2cc(F)c(N3CCOCC3)cc2n1C(=O)NCCc1ccccc1` [Example 334a, 5-Fluoro-2-methoxy-6-morpholino-N-(2-phenethyl)-1H-benzo[d]imidazole-1-carboxamide], the IC50 at acid ceramidase (pH 4.5) was < 200 nM. Besides, the solubility in data set [1] was found to be 3 µg/mL (≈ 7.53 µM).
Take `CCCCNC(=O)n1cnc2ccc(OC(F)(F)F)cc21` [Example 70a, N-Butyl-6-(trifluoromethoxy)-1H-benzo[d]imidazole-1-carboxamide]: the IC50 at acid ceramidase (setting [2]) was < 200 nM. The solubility in data set [1] came to 9.3 µg/mL (≈ 30.9 µM).
Turning to `C[C@@H]1CN(c2cccc3c2ncn3C(=O)NCCCc2ccccc2)C[C@H](C)O1` [Example 219, 4-((2S,6R)-2,6-Dimethylmorpholino)-N-(3-phenylpropyl)-1H-benzo[d]imidazole-1-carboxamide], the IC50 against acid ceramidase (pH 4.5) is < 200 nM. Besides, the concentration in solution in data set [1] (solubility) came to 0.5 µg/mL (≈ 1.27 µM).
Taken in the same sequence, the figures for `O=C(NCCOc1ccccc1)n1cnc2c(N3CCN4CCCC4C3)cccc21` (stereo not shown) [Example 316, 4-(Hexahydropyrrolo[1,2-a]pyrazin-2(1H)-yl)-N-(2-phenoxyethyl)-1H-benzo[d]imidazole-1-carboxamide] were < 200 nM and 27 µg/mL (≈ 66.6 µM).
As for `COc1cc2ncn(C(=O)NCCc3ccccc3)c2cc1N1CCOCC1` [Example 38a, 5-Methoxy-6-morpholino-N-phenethyl-1H-benzo[d]imidazole-1-carboxamide], at acid ceramidase (setting [2]), the IC50 is < 200 nM. The same compound gave a solubility in data set [1] of 20.4 µg/mL (≈ 53.6 µM).
`O=C(NCCOc1ccccc1)n1cnc2c(N3CCN(C4COC4)CC3)cccc21` [Example 327, 4-(4-(Oxetan-3-yl)piperazin-1-yl)-N-(2-phenoxyethyl)-1H-benzo[d]imidazole-1-carboxamide]: at acid ceramidase (pH 4.5), the IC50 was < 200 nM. In data set [1], this compound gave a solubility of 25 µg/mL (≈ 59.3 µM).
In the case of `CCn1c(=O)n(C(=O)NCCc2ccccc2)c2ncccc21` [Example 127, 1-Ethyl-2-oxo-N-phenethyl-1H-imidazo[4,5-b]pyridine-3(2H)-carboxamide], the IC50 at acid ceramidase (setting [2]) was in the range of 200 to 1000 nM. The compound also displayed a solubility in data set [1] of 23 µg/mL (≈ 74.1 µM).
On the same counts, the results for `CC(C)CCNC(=O)n1cnc2c(N3CCN(C4COC4)CC3)cccc21` [Example 154, N-iso-Pentyl-4-(4-(oxetan-3-yl)piperazin-1-yl)-1H-benzo[d]imidazole-1-carboxamide] are 200 to 1000 nM and 30 µg/mL (≈ 80.8 µM).
On the same counts, the results for `COc1cccc(C#CCNC(=O)n2cnc3c(N4CCN(C)CC4)cccc32)c1` [Example 340, N-(3-(3-Methoxyphenyl)prop-2-yn-1-yl)-4-(4-methylpiperazin-1-yl)-1H-benzo[d]imidazole-1-carboxamide] are < 200 nM and 13 µg/mL (≈ 32.2 µM).
On the same counts, the results for `CN1CCN(C2CN(c3cccc4c3ncn4C(=O)NCCC#Cc3ccccc3)C2)CC1` [Example 362, 4-(3-(4-Methylpiperazin-1-yl)azetidin-1-yl)-N-(4-phenylbut-3-ynyl)-1H-benzo[d]imidazole-1-carboxamide] are < 200 nM and 23 µg/mL (≈ 52 µM).
As for `CC(C)CCNC(=O)n1c(OCCN(C)C)nc2ccccc21` [Example 120, 2-(2-(Dimethylamino)ethoxy)-N-iso-pentyl-1H-benzo[d]imidazole-1-carboxamide], the IC50 against acid ceramidase (setting [2]) was < 200 nM. The same compound registered a solubility in data set [1] of 21 µg/mL (≈ 66 µM).
On acid ceramidase (setting [2]), `CCCCNC(=O)n1c(OC)nc2ccc(-c3cncnc3)cc21` [Example 82a, N-Butyl-2-methoxy-6-(pyrimidin-5-yl)-1H-benzo[d]imidazole-1-carboxamide] showed an IC50 of 200 to 1000 nM. In data set [1], the concentration in solution (solubility) came to 21.8 µg/mL (≈ 67 µM).
Regarding `COc1nc2ccc(N3CCOCC3)cc2n1C(=O)NCCCc1ccc(F)cc1` [Example 221a], the concentration for half-maximal inhibition (IC50) at acid ceramidase (pH 4.5) is < 200 nM. Also, the solubility in data set [1] was determined as 4 µg/mL (≈ 9.7 µM).
Taken in the same sequence, the figures for `CC(C)C#CCNC(=O)n1cnc2c(N3CCN(CCF)CC3)cccc21` [Example 309, 4-(4-(2-Fluoroethyl)piperazin-1-yl)-N-(4-methylpent-2-yn-1-yl)-1H-benzo[d]imidazole-1-carboxamide] were < 200 nM and 22 µg/mL (≈ 59.2 µM).
For the compound `CCCCNC(=O)n1c(OC(C)C)nc2ccccc21` [Example 96, N-Butyl-2-isopropoxy-1H-benzo[d]imidazole-1-carboxamide], the IC50 at acid ceramidase (setting [2]) was > 1000 nM. In addition, the concentration in solution in data set [1] (solubility) came to 10.3 µg/mL (≈ 37.4 µM).
For the compound `COc1nc2cc(N3CCN(C4CN(C)C4)CC3)c(F)cc2n1C(=O)NCC#CC(C)C` [Example 320a, 6-Fluoro-2-methoxy-5-(4-(1-methylazetidin-3-yl)piperazin-1-yl)-N-(4-methylpent-2-yn-1-yl)-1H-benzo[d]imidazole-1-carboxamide], at acid ceramidase (pH 4.5), the IC50 was > 1000 nM. In addition, the solubility in data set [1] came out at 33 µg/mL (≈ 74.6 µM).

The IC50 is the concentration that gives 50% inhibition. The term solubility denotes the dissolved amount per volume that the medium holds. A low value points to a poorly soluble substance.
